From patent US7932262B2 (Novartis AG, priority 2006, dated 2011)
pEC50, pIC50: −log10 of the molar value. Like-named read-outs stand apart in the source and are kept apart here.

Columns and labels:
PDK1 kinase = target: T1, PDK1 kinase (Homo sapiens, UniProt O15530); assay: PDK1 Kinase Alpha Screen Assay; type: biochemical; settings: PDK1 Kinase Alpha Screen Assay; read-out: PDK1 IC50
T1 sequence (O15530 1-556): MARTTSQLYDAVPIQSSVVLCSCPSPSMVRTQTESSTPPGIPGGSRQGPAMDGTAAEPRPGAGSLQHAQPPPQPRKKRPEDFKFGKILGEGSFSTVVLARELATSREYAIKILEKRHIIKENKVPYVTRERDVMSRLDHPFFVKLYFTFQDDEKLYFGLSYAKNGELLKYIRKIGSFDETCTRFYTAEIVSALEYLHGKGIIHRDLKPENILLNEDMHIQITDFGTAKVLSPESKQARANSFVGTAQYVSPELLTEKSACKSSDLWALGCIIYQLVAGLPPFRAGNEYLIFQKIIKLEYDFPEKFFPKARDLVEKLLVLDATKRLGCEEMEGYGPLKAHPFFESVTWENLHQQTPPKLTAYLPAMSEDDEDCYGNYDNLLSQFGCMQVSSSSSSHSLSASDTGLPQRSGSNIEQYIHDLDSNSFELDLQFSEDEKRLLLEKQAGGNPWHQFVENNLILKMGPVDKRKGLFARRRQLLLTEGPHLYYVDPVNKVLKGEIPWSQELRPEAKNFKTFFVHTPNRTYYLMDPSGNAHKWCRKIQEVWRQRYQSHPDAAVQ
How it was run: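 Detection used AlphaScreen: streptavidin donor and protein A acceptor beads (25 μg/ml each) bridged by a phospho-(Ser/Thr) PKA substrate antibody binding phosphorylated peptide. Reaction: biotin-PDK1-4 peptide (50 nM), ATP (10 uM), PDK1 in pH 7.5 Tris/MgCl2/DTT buffer, 3-18 hours, EDTA-stopped.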

PC3MM cells = assay: Cell Proliferation Assay (Cell Titer Glo), PC3MM; type: cell-based; settings: read-out: CPEC50 PC3MM
How it was run: (§1)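 Following a 3-day compound exposure (37° C., 5% CO2) of A2780 or PC3MM cells plated at 1000 per well, viability was measured by Cell Titer Glo luminescence in fresh medium, read 10 min after reagent addition.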

A2780 cells = assay: Cell Proliferation Assay (Cell Titer Glo), A2780; type: cell-based; settings: Homo sapiens, read-out: CPEC50 A2780
How it was run: as §1

[1] = cell proliferation, PC3MM cells
[2] = cell proliferation, A2780 cells
[3] = Cell Proliferation Assay, PC3MM
[4] = Cell Proliferation Assay, A2780

Row | SMILES | pIC50 (PDK1 kinase) | pEC50 (PC3MM cells; [1]) | pEC50 (A2780 cells; [2]) | pEC50 (PC3MM cells; [3]) | pEC50 (A2780 cells; [4])
1 | Nc1cc(-c2cccc3cnc(Nc4ccc(S(N)(=O)=O)cc4)nc23)ccn1 [Compound 756, 4-(8-(2-aminopyridin-4-yl)quinazolin-2-ylamino)benzenesulfonamide] | > 5.30 | > 5.30 | 5.00 to 5.30 | – | –
2 | NS(=O)(=O)c1ccc(Nc2ncc3cccc(OC4CNC4)c3n2)cc1 [Compound 819, 4-(8-(azetidin-3-yloxy)quinazolin-2-ylamino)benzenesulfonamide] | > 5.30 | > 5.30 | 5.00 to 5.30 | – | –
3 | NS(=O)(=O)c1ccc(Nc2ncc3ccc(-c4ccc(F)nc4F)cc3n2)cc1 [Compound 836, 4-(7-(2,6-difluoropyridin-3-yl)quinazolin-2-ylamino)benzenesulfonamide] | > 5.30 | > 5.30 | > 5.30 | – | –
4 | CC(C)CN1CC(Oc2cccc3cnc(Nc4ccc(S(N)(=O)=O)cc4)nc23)C1 [Compound 835, 4-(8-(1-isobutylazetidin-3-yloxy)quinazolin-2-ylamino)benzenesulfonamide] | > 5.30 | > 5.30 | > 5.30 | – | –
5 | NS(=O)(=O)c1ccc(Nc2ncc3cccc(-c4cc[nH]c(=O)c4)c3n2)cc1 [Compound 833, 4-(8-(2-oxo-1,2-dihydropyridin-4-yl)quinazolin-2-ylamino)benzenesulfonamide] | > 5.30 | > 5.30 | 5.00 to 5.30 | – | –
6 | CN1CCC(Oc2cc3nc(Nc4ccc(N5CCOCC5)cc4)ncc3cc2-c2nccs2)CC1 [Compound 653, 7-(1-methylpiperidin-4-yloxy)-N-(4-morpholinophenyl)-6-(thiazol-2-yl)quinazolin-2-amine] | > 5.30 | – | – | > 5.30 | > 5.30
7 | NS(=O)(=O)c1ccc(Nc2ncc3cccc(-c4ccc(-c5ccn[nH]5)cc4)c3n2)cc1 [Compound 732, 4-(8-(4-(1H-pyrazol-5-yl)phenyl)quinazolin-2-ylamino)benzenesulfonamide] | > 5.30 | > 5.30 | > 5.30 | – | –
8 | CC(=O)NCCNc1ccc(-c2cccc3cnc(Nc4ccc(S(N)(=O)=O)cc4)nc23)cn1 [Compound 829, N-(2-(5-(2-(4-sulfamoylphenylamino)quinazolin-8-yl)pyridin-2-ylamino)ethyl)acetamide] | > 5.30 | > 5.30 | > 5.30 | – | –
9 | CC(=O)NCCNc1cc(-c2cccc3cnc(Nc4ccc(S(N)(=O)=O)cc4)nc23)ccn1 [Compound 746, N-(2-(4-(2-(4-sulfamoylphenylamino)quinazolin-8-yl)pyridin-2-ylamino)ethyl)acetamide] | > 5.30 | > 5.30 | 5.00 to 5.30 | – | –
10 | c1cc(N2CCOCC2)ccc1Nc1ncc2cc(-c3cnoc3)c(OC3CCNCC3)cc2n1 [Compound 652, 6-(isoxazol-4-yl)-N-(4-morpholinophenyl)-7-(piperidin-4-yloxy)quinazolin-2-amine] | > 5.30 | – | – | > 5.30 | > 5.30
11 | NS(=O)(=O)c1ccc(Nc2ncc3cccc(-c4ccnc(NCCN5CCCC5)c4)c3n2)cc1 [Compound 747, 4-(8-(2-(2-(pyrroIidin-1-yl)ethylamino)pyridin-4-yl)quinazolin-2-ylamino)benzenesulfonamide] | > 5.30 | > 5.30 | > 5.30 | – | –
12 | NS(=O)(=O)c1ccc(Nc2ncc3cccc(C(=O)N4CCCC4)c3n2)cc1 [Compound 760, 4-(8-(pyrrolidine-1-carbonyl)quinazolin-2-ylamino)benzenesulfonamide] | > 5.30 | > 5.30 | 5.00 to 5.30 | – | –
13 | NS(=O)(=O)c1ccc(Nc2ncc3ccc(-c4ccc5cn[nH]c5c4)cc3n2)cc1 [Compound 813, 4-(7-(1H-indazol-6-yl)quinazolin-2-ylamino)benzenesulfonamide] | > 5.30 | > 5.30 | > 5.30 | – | –
14 | NC(=O)c1ccc(-c2ccc3cnc(Nc4ccc(S(N)(=O)=O)cc4)nc3c2)cn1 [Compound 790, 5-(2-(4-sulfamoylphenylamino)quinazolin-7-yl)picolinamide] | > 5.30 | > 5.30 | 5.00 to 5.30 | – | –
15 | COCCNC(=O)c1cccc2cnc(Nc3ccc(S(N)(=O)=O)cc3)nc12 [Compound 761, N-(2-methoxyethyl)-2-(4-sulfamoylphenylamino)quinazoline-8-carboxamide] | > 5.30 | 5.00 to 5.30 | > 5.30 | – | –
16 | CN(C)[C@@H]1CCN(C(=O)c2cccc3cnc(Nc4ccc(S(N)(=O)=O)cc4)nc23)C1 [Compound 804, (R)-4-(8-(3-(dimethylamino)pyrrolidine-1-carbonyl)quinazolin-2-ylamino)benzenesulfonamide] | > 5.30 | > 5.30 | 5.00 to 5.30 | – | –
17 | Cc1ccc(Cl)cc1NC(=O)c1ccc2cnc(Nc3ccc(S(N)(=O)=O)cc3)nc2c1 [Compound 838, N-(5-chloro-2-metlhylphenyl)-2-(4-sulfamoylphenylamino)quinazoline-7-carboxamide] | > 5.30 | > 5.30 | > 5.30 | – | –
18 | NS(=O)(=O)c1ccc(Nc2ncc3cccc(-c4ccncc4)c3n2)cc1 [Compound 743, 4-(8-(pyridin-4-yl)quinazolin-2-ylamino)benzenesufonamide] | > 5.30 | > 5.30 | 5.00 to 5.30 | – | –
19 | NS(=O)(=O)c1ccc(Nc2ncc3cccc(-c4ccc(N5CCNC(=O)C5)nc4)c3n2)cc1 [Compound 828, 4-(8-(6-(3-oxopiperazin-1-yl)pyridin-3-yl)quinazolin-2-ylamino)benzenesulfonamide] | > 5.30 | > 5.30 | > 5.30 | – | –
20 | NS(=O)(=O)c1ccc(Nc2ncc3cccc(-c4cccc(S(N)(=O)=O)c4)c3n2)cc1 [Compound 738, 3-(2-(4-sulfamoylphenylamino)quinazolin-8-yl)benzenesulfonamide] | > 5.30 | > 5.30 | > 5.30 | – | –
21 | CN1CCN(C(=O)c2cccc3cnc(Nc4ccc(S(N)(=O)=O)cc4)nc23)CC1 [Compound 769, 4-(8-(4-methylpiperazine-1-carbonyl)quinazolin-2-ylamino)benzenesulfonamide] | > 5.30 | > 5.30 | 5.00 to 5.30 | – | –
22 | NS(=O)(=O)c1ccc(Nc2ncc3cccc(O[C@H]4CCNC4)c3n2)cc1 [Compound 721, (S)-4-(8-(pyrrolidin-3-yloxy)quinazolin-2-ylamino)benzenesulfonamide] | > 5.30 | > 5.30 | > 5.30 | – | –
23 | NS(=O)(=O)c1ccc(Nc2ncc3cccc(-c4ccc5c(c4)OCO5)c3n2)cc1 [Compound 739, 4-(8-(benzo[d][1,3]dioxol-5-yl)quinazolin-2-ylamino)benzenesulfonamide] | > 5.30 | > 5.30 | > 5.30 | – | –
24 | NS(=O)(=O)c1ccc(Nc2ncc3cccc(-c4ccc(N5CCS(=O)(=O)CC5)nc4)c3n2)cc1 [Compound 834] | > 5.30 | > 5.30 | > 5.30 | – | –
25 | Cc1csc(NC(=O)c2ccc3cnc(Nc4ccc(S(N)(=O)=O)cc4)nc3c2)c1C(N)=O [Compound 839, N-(3-carbamoyl-4-methylthiophen-2-yl)-2-(4-sulfamoylphenylamino)quinazoline-7-carboxamide] | > 5.30 | > 5.30 | > 5.30 | – | –
26 | CS(=O)(=O)c1cccc(-c2cccc3cnc(Nc4ccc(S(N)(=O)=O)cc4)nc23)c1 [Compound 735, 4-(8-(3-(methysulfonyl)phenyl)quinazolin-2-ylamino)benzenesulfonamide] | > 5.30 | > 5.30 | > 5.30 | – | –
27 | COc1cc(-c2cccc3cnc(Nc4ccc(S(N)(=O)=O)cc4)nc23)c(Cl)cn1 [Compound 765, 4-(8-(5-chloro-2-methoxypyridin-4-yl)quinazolin-2-ylamino)benzenesulfonamide] | > 5.30 | > 5.30 | > 5.30 | – | –
28 | CN1CC[C@@H](Oc2cccc3cnc(Nc4ccc(S(N)(=O)=O)cc4)nc23)C1 [Compound 727, (R)-4-(8-(1-methylpyrrolidin-3-yloxy)quinazolin-2-ylamino)benzenesulfonamide] | > 5.30 | > 5.30 | > 5.30 | – | –
29 | NS(=O)(=O)c1ccc(Nc2ncc3ccc(-c4cn[nH]c4)cc3n2)cc1 [Compound 792, 4-(7-(1H-pyrazol-4-yl)quinazolin-2-ylamino)benzenesulfonamide] | > 5.30 | > 5.30 | > 5.30 | – | –
30 | O=S(=O)(c1cccc(Nc2ncc3cccc(OC4CCNCC4)c3n2)c1)N1CCOCC1 [Compound 773, N-(3-(morpholinosulfonyl)phenyl)-8-(piperidin-4-yloxy)quinazolin-2-amine] | > 5.30 | > 5.30 | > 5.30 | – | –
